Experimental data as given in patent US20150104868A1, “Methods of Maintaining and Improving Biological Cell Function and Activity” (GARGILL INCORPORATED, priority 2012, published 2015).

Test system: CRL 1730 HUVECs
Assay: Microarray transcriptomics of HUVEC (HGERT/HG, HG/NG)
Assay type: cell-based, human
[1] = Atherosclerosis, ATP binding and metabolism
[2] = Atherosclerosis, Cysteine/gluathione
[3] = Atherosclerosis, Cytokine activity
[4] = Atherosclerosis, Endothelial cell related
[5] = Atherosclerosis, Heat shock protein
[6] = Atherosclerosis, NF-kappaB transcription
[7] = Atherosclerosis, Nitric oxide synthase activity
[8] = Atherosclerosis, Peptidase activity
[9] = Atherosclerosis, Plasminogen activators
[10] = Atherosclerosis, Reactive oxygen species

Compound: OC[C@@H](O)[C@@H](O)CO [ERT, meso-1,2,3,4-tetrahydroxybutane]
- HGERT/HG ABCB10 (ATP-binding cassette, sub-family B (MDR/TAP), member 10) [1]: 0.98 Ω
- HGERT/HG ACTL6A (Actin-like 6A) [1]: 0.98 Ω
- HGERT/HG ACTR5 (ARP5 actin-related protein 5 homolog (yeast)) [1]: Ψ 1.01
- HGERT/HG ATAD1 (ATPase family, AAA domain containing 1) [1]: 0.99 Ω
- HGERT/HG ATAD3B (ATPase family, AAA domain containing 3B) [1]: Ψ 1.01
- HGERT/HG ATP2C1 (ATPase, Ca++ transporting, type 2C, member 1) [1]: 0.99 Ω
- HGERT/HG ATP5E (ATP synthase, H+ transporting, mitochondrial F1 complex, epsilon subunit) [1]: 0.98 Ω
- HGERT/HG ATP5O (ATP synthase, H+ transporting, mitochondrial Fl complex, O subunit) [1]: 1.00 Ω
- HGERT/HG ATP13A1 (ATPase type 13A1) [1]: Ψ 1.02
- HGERT/HG C3orf26 (Chromosome 3 open reading frame 26) [1]: 0.99 Ω
- HGERT/HG CARS (Cysteinyl-tRNA synthetase) [1]: 1.00 Ω
- HGERT/HG CSNK1G1 (Casein kinase 1, gamma 1) [1]: Ψ 1.02
- HGERT/HG DCAKD (Dephospho-CoA kinase domain containing) [1]: Ψ 1.03
- HGERT/HG DDX54 (DEAD (Asp-Glu-Ala-Asp) box, polypeptide 54) [1]: 0.99 Ω
- HGERT/HG FASTKD1 (FAST kinase domains 1) [1]: 0.99 Ω
- HGERT/HG FASTKD3 (FAST kinase domains 3) [1]: 0.99 Ω
- HGERT/HG HLTF (Helicase-like transcription factor) [1]: 0.99 Ω
- HGERT/HG HSPE1 (Heat shock 10kDa protein 1 (chaperonin 10)) [1]: 0.99 Ω
- HGERT/HG KIF1B (Kinesin family member 1B) [1]: Ψ 1.01
- HGERT/HG LIMK1 (LIM domain kinase 1) [1]: Ψ 1.01
- HGERT/HG LVN (V-yes-1 Yamaguchi sarcoma viral related oncogene homolog) [1]: Ψ 1.02
- HGERT/HG MAP4K3 (Mitogen-activated protein kinase kinase kinase kinase 3) [1]: 0.98 Ω
- HGERT/HG MARK2 (MAP/microtubule affinity-regulating kinase 2) [1]: Ψ 1.03
- HGERT/HG RP2 (Retinitis pigmentosa 2 (X-linked recessive)) [1]: 0.99 Ω
- HGERT/HG RPS6KA2 (Ribosomal protein S6 kinase, 90kDa, polypeptide 2) [1]: Ψ 1.01
- HGERT/HG SLK (STE20-like kinase) [1]: 0.99 Ω
- HGERT/HG STK39 (Serine threonine kinase 39) [1]: 0.98 Ω
- HGERT/HG SUCLA2 (Succinate-CoA ligase, ADP-forming, beta subunit) [1]: 0.99 Ω
- HGERT/HG TRIT1 (TRNA isopentenyltransferase 1) [1]: 0.98 Ω
- HGERT/HG VPS4B (Vacuolar protein sorting 4 homolog B (S. cerevisiae)) [1]: 0.99 Ω
- HGERT/HG YME1L1 (YME1-like 1 (S. cerevisiae)) [1]: 1.00 Ω
- HGERT/HG CORO1A (Coronin, actin binding protein, 1A) (Atherosclerosis, Actin binding): 0.94 Ω
- HGERT/HG PLEC1 (Plectin) (Atherosclerosis, Actin binding): Ψ 1.03
- HGERT/HG AHCYL1 (Adenosylhomocysteinase-like 1) [2]: Ψ 1.01
- HGERT/HG ATIC (5-aminoimidazole-4-carboxamide ribonucleotide formyltransferase/IMP cyclohydrolase) [2]: 0.99 Ω
- HGERT/HG ESD (Esterase D) [2]: 0.99 Ω
- HGERT/HG BMP6 (Bone morphogenetic protein 6) [3]: Ψ 1.01
- HGERT/HG IL13RA1 (Interleukin 13 receptor, alpha 1) [3]: Ψ 1.02
- HGERT/HG IL17D (Interleukin 17D) [3]: 0.98 Ω
- HGERT/HG ENG (Endoglin) [4]: Ψ 1.01
- HGERT/HG FOXC1 (Forkhead box C1) [4]: Ψ 1.01
- HGERT/HG GPR124 (G protein-coupled receptor 124) [4]: Ψ 1.02
- HGERT/HG HIG2 (Chromosome 7 open reading frame 68) [4]: Ψ 1.01
- HGERT/HG JUP (Junction plakoglobin) [4]: Ψ 1.01
- HGERT/HG KRIT1 (KRIT1, ankyrin repeat containing) [4]: 0.99 Ω
- HGERT/HG NOTCH1 (Notch 1) [4]: Ψ 1.02
- HGERT/HG JUP (Junction plakoglobin) (Atherosclerosis, Endothelial cell-cell adhesion): Ψ 1.01
- HGERT/HG DNAJC8 (DnaJ (Hsp40) homolog, subfamily C, member 8) [5]: 0.99 Ω
- HGERT/HG DNAJC11 (DnaJ (Hsp40) homolog, subfamily C, member 11) [5]: Ψ 1.01
- HGERT/HG COMMD7 (COMM domain containing 7) [6]: 0.99 Ω
- HGERT/HG NDFIP2 (Nedd4 family interacting protein 2) [6]: 0.99 Ω
- HGERT/HG PTPLAD1 (Protein tyrosine phosphatase-like A domain containing 1) [6]: Ψ 1.01
- HGERT/HG TP53BP2 (Tumor protein p53 binding protein, 2) [6]: Ψ 1.01
- HGERT/HG ACVR2A (Activin A receptor, type IIA) [7]: 0.99 Ω
- HGERT/HG ENG (Endoglin) [7]: Ψ 1.01
- HGERT/HG HIG2 (Chromosome 7 open reading frame 68) [7]: Ψ 1.01
- HGERT/HG OSTM1 (Osteopetrosis associated transmembrane protein 1) (Atherosclerosis, Osteoclast differentiation): 0.99 Ω
- HGERT/HG ATXN3 (Ataxin 3) [8]: 0.99 Ω
- HGERT/HG OTUD5 (OTU domain containing 5) [8]: Ψ 1.01
- HGERT/HG SENP3 (SUMO1/sentrin/SMT3 specific peptidase 3) [8]: Ψ 1.01
- HGERT/HG WFDC12 (WAP four-disulfide core domain 12) [8]: 0.96 Ω
- HGERT/HG PLSCR4 (Phospholipid scramblase 4) (Atherosclerosis, Phospholipid scramblase): 0.99 Ω
- HGERT/HG BRD2 (Bromodomain containing 2) [9]: Ψ 1.02
- HGERT/HG RHOJ (Ras homolog gene family, member J) [9]: Ψ 1.02
- HGERT/HG COX8A (Cytochrome c oxidase subunit VIIIA (ubiquitous)) [10]: 0.99 Ω
- HGERT/HG JUP (Junction plakoglobin) [10]: Ψ 1.01
- HGERT/HG MPHOSPH6 (M-phase phosphoprotein 6) [10]: 0.99 Ω
- HGERT/HG SDHD (Succinate dehydrogenase complex, subunit D, integral membrane protein) [10]: 0.98 Ω
- HGERT/HG SMOX (Spermine oxidase) [10]: 0.99 Ω
- HGERT/HG SOS1 (Son of sevenless homolog 1 (Drosophila)) [10]: Ψ 1.06
- HGERT/HG TCF12 (Transcription factor 12) [10]: 0.99 Ω
- HGERT/HG TGM2 (Transglutaminase 2 (C polypeptide, protein-glutamine-gamma-glutamyltransferase)) [10]: Ψ 1.01
- HGERT/HG PGRMC2 (Progesterone receptor membrane component 2) (Atherosclerosis, Steroid hormone receptor activity): 0.98 Ω
- HGERT/HG ABCB10 (ATP-binding cassette, sub-family B (MDR/TAP), member 10) (Breast cancer, ATP metabolism): 0.98 Ω
- HGERT/HG ACTL6A (Actin like 6A) (Breast cancer, ATP metabolism): 0.98 Ω
- HGERT/HG ACTR5 (ARP5 actin-related protein 5 homolog (yeast)) (Breast cancer, ATP metabolism): Ψ 1.01
- HGERT/HG ATAD1 (ATPase family, AAA domain containing 1) (Breast cancer, ATP metabolism): 0.99 Ω
- HGERT/HG ATAD38 (ATPase family, AAA domain containing 38) (Breast cancer, ATP metabolism): Ψ 1.01
- HGERT/HG ATP2C1 (ATPase, Ca++ transporting, type 2C, member 1) (Breast cancer, ATP metabolism): 0.99 Ω
- HGERT/HG ATP5E (ATP synthase, H+ transporting, mitochondrial F1 complex, epsilon subunit) (Breast cancer, ATP metabolism): 0.99 Ω
- HGERT/HG ATP5O (ATP synthase, H+ transporting, mitochondrial F1 complex, O subunite) (Breast cancer, ATP metabolism): Ψ 1.00
- HGERT/HG ATP13A1 (ATPase type 13A1) (Breast cancer, ATP metabolism): Ψ 1.02
- HGERT/HG C3orf26 (Chromosome 3 open reading frame 26) (Breast cancer, ATP metabolism): 0.99 Ω
- HGERT/HG CARS (Cysteinyl-tRNA synthetase) (Breast cancer, ATP metabolism): 1.00 Ω
- HGERT/HG CSNK1G1 (Casein kinase 1, gamma 1) (Breast cancer, ATP metabolism): Ψ 1.02
- HGERT/HG DCAKO (Dephospho-CoA kinase domain containing) (Breast cancer, ATP metabolism): Ψ 1.03
- HGERT/HG DDX54 (DEAD (Asp-Glu-Ala-Asp) box, polypeptide 54) (Breast cancer, ATP metabolism): 0.99 Ω
- HGERT/HG FASTDK1 (FAST kinase domains 1) (Breast cancer, ATP metabolism): 0.99 Ω
- HGERT/HG FASTKD3 (FAST kinase domains 1) (Breast cancer, ATP metabolism): 0.99 Ω
- HGERT/HG HLTF (Helicase-like transcription factor) (Breast cancer, ATP metabolism): 0.99 Ω
- HGERT/HG HSPE1 (Heat shock 10kDa protein 1 (chaperonin 10)) (Breast cancer, ATP metabolism): 0.99 Ω
- HGERT/HG KF1B (Kinesin family member 1B) (Breast cancer, ATP metabolism): Ψ 1.01
- HGERT/HG LIMK1 (LIM domain kinase 1) (Breast cancer, ATP metabolism): Ψ 1.01
- HGERT/HG LYN (V-yes-1 Yamaguchi sarcoma viral related oncogene homolog) (Breast cancer, ATP metabolism): Ψ 1.02
- HGERT/HG MAP4K3 (Mitogen-activated protein kinase kinase kinase kinase 3) (Breast cancer, ATP metabolism): 0.98 Ω
- HGERT/HG RP2 (Retinitis pigmentosa 2 (X-linked recessive)) (Breast cancer, ATP metabolism): 0.98 Ω
- HGERT/HG SLK (STE20-like kinase) (Breast cancer, ATP metabolism): 0.99 Ω
- HGERT/HG STK39 (Serine threonine kinase 39) (Breast cancer, ATP metabolism): 0.98 Ω
- HGERT/HG SUCLA2 (Succinate-CoA ligase, ADP-forming, beta subunit) (Breast cancer, ATP metabolism): 0.99 Ω
